The source of these data is US20240417405A1, “Substituted Spiro Derivatives” (Janssen Pharmaceutica NV, priority 2021, published 2024).

Read-outs that look alike come from different tables or passages of the source. Bounds are passed on as bounds.

The subject of assay [1] is KO-52 cells. Nature of the assay: Proliferation assay, spheroid-like growth, KO-52 (MLL wildtype control cell line). Conditions: KO-52 control cells, 8 days, confluence as measure of spheroid size, read-out: spheroid assay_OneTime KO-52 IC50. It counts as cell-based, human. A digest of the protocol:
(§1)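 IC50 derived from a variable-slope dose-response fit of percent confluence change, with DMSO-treated cells as high control and high-dose reference compound as low control. Spheroid-like growth of MOLM14 (200 cells/well) or KO-52 (300 cells/well) in ultra-low attachment plates, 8 days, 37° C, 5% CO2, DMSO normalised to 0.3%, imaged at day 8.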

The target of assay [2] is T1, menin/MLL (terbium chelate-labeled menin, FITC-MBM1 peptide) (Homo sapiens, UniProt O00255, T541A).
T1 construct: Menin (a.a 1-610-6xhis tag)
T1 sequence (O00255 with tags, fused parts or gaps T541A): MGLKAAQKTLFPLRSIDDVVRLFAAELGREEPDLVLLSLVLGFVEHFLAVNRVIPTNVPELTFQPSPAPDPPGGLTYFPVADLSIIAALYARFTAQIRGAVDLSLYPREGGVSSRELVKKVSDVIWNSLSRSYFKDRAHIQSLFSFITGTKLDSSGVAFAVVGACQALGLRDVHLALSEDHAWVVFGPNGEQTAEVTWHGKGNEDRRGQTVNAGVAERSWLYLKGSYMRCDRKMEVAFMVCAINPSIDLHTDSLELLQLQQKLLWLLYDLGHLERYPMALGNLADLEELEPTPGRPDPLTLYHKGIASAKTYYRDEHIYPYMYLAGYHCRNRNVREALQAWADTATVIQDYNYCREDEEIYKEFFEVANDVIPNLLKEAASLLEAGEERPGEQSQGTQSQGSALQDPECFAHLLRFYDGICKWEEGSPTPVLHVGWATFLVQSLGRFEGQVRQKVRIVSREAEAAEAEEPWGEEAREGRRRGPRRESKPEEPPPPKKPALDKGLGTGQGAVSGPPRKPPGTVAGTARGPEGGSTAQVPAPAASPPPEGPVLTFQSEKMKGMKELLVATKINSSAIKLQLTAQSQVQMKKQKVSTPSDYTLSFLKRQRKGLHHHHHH
In words: Menin/MLL homogenous time-resolved fluorescence (HTRF) assay. In kind it is binding. Conditions: 30 min incubation. In outline: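 Compounds were preincubated 30 min at ambient temperature with 200 pM terbium-labeled menin (aa 1-610, His-tagged) in Tris pH 7.5 buffer with DTT and Pluronic, then 75 nM FITC-MBM1 peptide added for 15 min. HTRF ratio 520/490 nm gave % inhibition; IC50 from four-parameter fit, floor 0.1 nM.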

For assay [3], the system named is MOLM14 cells. Nature of the assay: Proliferation assay, spheroid-like growth, MOLM14 (MLL-AF9 rearranged). Conditions: 8 days, confluence as measure of spheroid size, read-out: spheroid assay_OneTime MOLM14 IC50. In kind it is cell-based, human. A digest of the protocol:
as §1

On to `CC(=O)N1CC2(C1)CN([C@H]1C[C@@H]([C@H](C(C)C)N3CC4(CCN(c5ncnnc5Oc5ccc(F)cc5-c5ncc(C)cc5C5CC5)C4)C3)C1)C2` (single isomer, unassigned) [Compound 373], for which the IC50 – broadly, the point on the concentration scale where inhibition reaches its midpoint – in assay [1] (Homo sapiens, 192 h) worked out at 5410 nM; in assay [2], 0.77 nM; in assay [3] (Homo sapiens, MOLM-14, 192 h) it was 7.6 nM.
In the case of `C[C@@H]([C@H]1C[C@@H](NC(=O)OC(C)(C)C)C1)N1CC2(CCN(c3ncnnc3Oc3ccc(F)cc3-c3cncnc3C3CC3)C2)C1` [Compound 512b], the results for the IC50 in assay [1], in assay [2] and in assay [3] were 5810 nM, 0.589 nM and above 940 nM, respectively.
Turning to `CC(=O)N1CCCC12CN([C@H]1C[C@@H]([C@@H](C(C)C)N3CC4(CCN(c5ncnnc5Oc5ccc(F)cc5-c5cncnc5C5CC5)C4)C3)C1)C2` (single isomer, unassigned) [Compound 174], the IC50 in assay [1] (Homo sapiens, 192 h) is 7400 nM; in assay [2] it was 0.1 nM; in assay [3] (Homo sapiens, MOLM-14, 192 h), 9 nM.
The corresponding values for `COCCN(C)[C@H]1C[C@@H]([C@@H](C(C)C)N2CC3(CCN(c4ncnnc4Oc4ccc(F)cc4-c4cncnc4C4CC4)C3)C2)C1` (single isomer, unassigned) [Compound 38] are above 15000 nM, 0.2 nM and 6 nM.
The corresponding values for `CC(=O)N[C@H]1C[C@@H]([C@@H](C(C)C)N2CC3(CCN(c4ncnnc4Oc4ccc(F)cc4-c4nccnc4C4CC4)C3)C2)C1` (single isomer, unassigned) [Compound 177] are 8870 nM, 0.2 nM and 37 nM.
The corresponding values for `CC(C)[C@H]([C@H]1C[C@@H](N2CC(O)C3(CC3)C2)C1)N1CC2(CCN(c3ncnnc3Oc3ccc(F)cc3-c3cncnc3C3CC3)C2)C1` (mixture of isomers) [Compound 42] are 2120 nM, 0.1 nM and 4 nM.
As for `CC(C)[C@H]([C@H]1C[C@@H](N2CC[C@H](O)C23CC3)C1)N1CC2(CCN(c3ncnnc3Oc3ccc(F)cc3-c3cncnc3C3CC3)C2)C1` (single isomer, unassigned) [Compound 41], the IC50 in assay [1] (Homo sapiens, 192 h) was above 15000 nM; in assay [2], 0.2 nM; in assay [3] (Homo sapiens, MOLM-14, 192 h) it was 12 nM.
In the same order, the values of `CC(C)[C@H]([C@H]1C[C@@H](N2C[C@H]3C[C@@H]2CO3)C1)N1CC2(CCN(c3ncnnc3Oc3ccc(F)cc3-c3cncnc3C3CC3)C2)C1` (single isomer, unassigned) [Compound 234] are 6280 nM, 0.1 nM and 9 nM.
The corresponding values for `CC(C)C([C@H]1C[C@H](N2CC3(COC3)C2)C1)N1CC2(CCN(c3ncnnc3Oc3ccc(F)cc3-c3cncnc3C3CC3)C2)C1` (single isomer, unassigned) [Compound 21] are 4610 nM, 0.1 nM and 52 nM.
With `CC(C)[C@H]([C@H]1C[C@@H](N2CC3(CCN(C)C3=O)C2)C1)N1CC2(CCN(c3ncnnc3Oc3ccc(F)cc3-c3cncnc3C3CC3)C2)C1` (single isomer, unassigned) [Compound 315], the IC50 came out at 1960 nM in assay [1] (Homo sapiens, 192 h); 0.1 nM in assay [2]; 18 nM in assay [3] (Homo sapiens, MOLM-14, 192 h).
In the same order, the values of `CO[C@H]1CCN([C@H]2C[C@@H]([C@H](C(C)C)N3CC4(CCN(c5ncnnc5Oc5ccc(F)cc5-c5cnncc5C5CC5)C4)C3)C2)C1` (single isomer, unassigned) [Compound 108] are 2650 nM, 0.2 nM and 1 nM.
In the same order, the values of `CC(C)[C@@H]([C@H]1C[C@H](N2C[C@H]3COC[C@H]3C2)C1)N1CC2(CCN(c3ncnnc3Oc3ccc(F)cc3-c3cncnc3C3CC3)C2)C1` (single isomer, unassigned) [Compound 245] are 8940 nM, 0.6 nM and 460 nM.
In the same order, the values of `COC1(C)CN([C@H]2C[C@H]([C@H](C(C)C)N3CC4(CCN(c5ncnnc5Oc5ccc(F)cc5-c5nnccc5C5CC5)C4)C3)C2)C1` (single isomer, unassigned) [Compound 264] are 14400 nM, 0.8 nM and 170 nM.
Take `CC(C)[C@H](C1CCN(CC2(O)CC2)CC1)N1CC2(CCN(c3ncnnc3Oc3ccc(F)cc3-c3cncnc3C3CC3)C2)C1` (single isomer, unassigned) [Compound 4]: the IC50 stood at 7730 nM in assay [1] (Homo sapiens, 192 h); 0.3 nM in assay [2]; 66 nM in assay [3] (Homo sapiens, MOLM-14, 192 h).
The corresponding values for `CC(C)[C@H]([C@H]1C[C@@H](N2CCC(C)(C(=O)N(C)C)C2)C1)N1CC2(CCN(c3ncnnc3Oc3ccc(F)cc3-c3cncnc3C3CC3)C2)C1` (stereo partly drawn) [Compound 161] are 3360 nM, 0.1 nM and 4 nM.
In the same order, the values of `CC(C)[C@@H]([C@H]1C[C@@H](N2C[C@H]3COC[C@H]3C2)C1)N1CC2(CCN(c3ncnnc3Oc3ccc(F)cc3-c3nnccc3C3CC3)C2)C1` (single isomer, unassigned) [Compound 258] are 490 nM, 0.1 nM and 4 nM.
The corresponding values for `CC(C)[C@@H]([C@H]1C[C@@H](N2CCC3(COC3)C2)C1)N1CC2(CCN(c3ncnnc3Oc3ccc(F)cc3-c3nnccc3C3CC3)C2)C1` (single isomer, unassigned) [Compound 254] are above 15000 nM, 0.1 nM and 16 nM.
As to `CC(=O)N1CCN([C@H]2C[C@@H](C(C(C)C)N3CC4(CCN(c5ncnnc5Oc5ccc(F)cc5-c5cncc(C#N)c5C5CC5)C4)C3)C2)CC1` (stereo partly drawn) [Compound 144], the IC50 in assay [1] (Homo sapiens, 192 h) stood at 12300 nM; in assay [2], 0.8 nM; in assay [3] (Homo sapiens, MOLM-14, 192 h) it was 200 nM.
In the same order, the values of `CC(C)[C@H]([C@H]1C[C@@H](N2CCC[C@H](C(=O)N(C)C)C2)C1)N1CC2(CCN(c3ncnnc3Oc3ccc(F)cc3-c3cncnc3C3CC3)C2)C1` (single isomer, unassigned) [Compound 51] are 14400 nM, 0.1 nM and 14 nM.
Turning to `CC(C)[C@H]([C@H]1C[C@H](N2CCC(C)(C(=O)N(C)C)C2)C1)N1CC2(CCN(c3ncnnc3Oc3ccc(F)cc3-c3cncnc3C3CC3)C2)C1` (stereo partly drawn) [Compound 162], the IC50 came to 6400 nM in assay [1] (Homo sapiens, 192 h); 0.1 nM in assay [2]; 110 nM in assay [3] (Homo sapiens, MOLM-14, 192 h).
`CC(C)[C@H]([C@H]1C[C@@H](N2C[C@H]3COC[C@H]3C2)C1)N1CC2(CCN(c3ncnnc3Oc3ccc(F)cc3-c3cnc(C#N)nc3C3CC3)C2)C1` [Compound 167]: the IC50 in assay [1] (Homo sapiens, 192 h) is 4110 nM; in assay [2], 0.1 nM; in assay [3] (Homo sapiens, MOLM-14, 192 h), below 2 nM.
The corresponding values for `CC(C)[C@H]([C@H]1C[C@H](N2CC(O)C3(CCC3)C2)C1)N1CC2(CCN(c3ncnnc3Oc3ccc(F)cc3-c3cncnc3C3CC3)C2)C1` (mixture of isomers) [Compound 213] are 3910 nM, 0.1 nM and 41 nM.
For `CO[C@H]1[C@@H]2CN([C@H]3C[C@H]([C@H](C(C)C)N4CC5(CCN(c6ncnnc6Oc6ccc(F)cc6-c6cnncc6C6CC6)C5)C4)C3)C[C@@H]21` (single isomer, unassigned) [Compound 282b], the IC50 in assay [1] (Homo sapiens, 192 h) was found to be 11500 nM; in assay [2] it was 0.5 nM; in assay [3] (Homo sapiens, MOLM-14, 192 h), 380 nM.
